Measurements from article PMC9501900 (Molecules, 2022).

Legend:
[1] = Pharmacokinetics of gefitinib in rats, alone and coadministered with CJ (serum, LC-MS/MS); assay type: in vivo; settings: for Change (increase) of AUC0-t of gefitinib / Change (increase) of Cmax of gefitinib: coadministration with CJ (5.0 g/kg of cranberry) vs gefitinib alone, p < 0.05; for Change (increase) of AUC0-t of gefitinib / Change (increase) of Cmax of gefitinib / AUC(0-t) / Cmax / MRT / Tmax: rats; for AUC(0-t) / Cmax / MRT / Tmax: male, Sprague-Dawley, rat, serum, po, 50 mg/kg, mean ± S.E., n = 5
Experimental: Twelve male Sprague-Dawley rats (300–400 g) were supplied by BioLASCO Taiwan Co., Ltd. […] […] Rats were fasted for 12 h before dosing, and food was offered 3 h after drug administration. […] The serum was collected after centrifugation at 10,000× g for 15 min and stored at −20 °C until analysis.
Briefly, 50 μL of serum was partitioned with an equal volume of ethyl acetate containing erlotinib (0.5 μg/mL) as internal standard. The ethyl acetate layer was evaporated under N2 gas to dryness and reconstituted with 50 μL of acetonitrile containing 0.1% formic acid, and then 5 μL was subject to LC-MS/MS analysis.
The mobile phase consisted of 0.1% formic acid (A) and acetonitrile containing 0.1% formic acid (B), and a gradient elution was programmed as follows: A/B: 80/20 (0–1.0 min), 0/100 (1.0–3.5 min) and 80/20 (3.5–6.5 min). The flow rate was 0.2 mL/ min. Nitrogen was used as sheath gas at 50 arbitrary units and auxiliary gas at 10 arbitrary units. […] ESI-MS spectra were recorded in the positive ion mode.
Pharmacokinetic parameters were calculated by the noncompartment model of Phoenix WinNonlin® (version 8.1 Pharsight Corporation, St. Louis, MO, USA). The peak serum concentration (Cmax) was calculated based on experimental measurement. The areas under the serum concentration–time curves (AUC0-t) from time zero to last were calculated by the trapezoidal rule. Each pharmacokinetic parameter was compared among various treatment groups using one-way analysis of variance (ANOVA) with Scheffe’s test. Other studies were statistically compared using unpaired Student’s t-test. Statistical significance level was set at p < 0.05.

[2] = cited from earlier work
[3] = gefitinib 50 mg/kg oral + water
[4] = gefitinib 50 mg/kg oral coadministered with CJ (5.0 g/kg of cranberry)

Change (increase) of AUC0-t of gefitinib [1] | Change (increase) of Cmax of gefitinib [1] | Change (increase) of AUC0-t of gefitinib ([1]; listed as gefitinib) | Change (increase) of Cmax of gefitinib ([1]; listed as gefitinib) | AUC(0-t) [1, 3] | Cmax [1, 3] | MRT [1, 3] | Tmax [1, 3] | AUC(0-t) [1, 4] | Cmax [1, 4] | MRT [1, 4] | Tmax [1, 4] | Concentrations of O-desmethyl gefitinib in serum ([1]; rat serum samples after oral gefitinib 50 mg/kg, calibration range 0.50–0.03 μg/mL) | SMILES | Bioavailability [2] | Elimination half-life [2]
(+55%) | (+28%) | 55% | 28% | 19500 ng·h/mL | 1800 ± 300 ng/mL | 8.52 h | 4.4 h | 30300 ng·h/mL | 2300 ± 200 ng/mL | 9.05 h | 3.6 h | – | COc1cc2ncnc(Nc3ccc(F)c(Cl)c3)c2cc1OCCCN1CCOCC1 [Gefitinib] | 57–59% | > 24 h
– | – | – | – | – | – | – | – | – | – | – | – | below the LLOQ | Oc1cc2ncnc(Nc3ccc(F)c(Cl)c3)c2cc1OCCCN1CCOCC1 [O-desmethyl gefitinib] | – | –
